# Measured values from paper PMC10466331, “Fluorescence polarisation activity-based protein profiling for the identification of deoxynojirimycin-type inhibitors selective for lysosomal retaining alpha- and beta-glucosidases” (Chemical Science, 2023).
# Read-outs that look alike come from different tables or passages of the source.
# How the values were obtained:
# [1] = molecular target: T1, recombinant human GAA (rhGAA, Myozyme) (Homo sapiens, UniProt P10253); test: competitive FluoPol-ABPP assay on rhGAA with TAMRA-ABP II; format: biochemical; conditions: library screen, 5 μM inhibitor, 25 nM ABP II;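 note: fluorescence polarization read at 540 nm excitation and 590 nm emission, background-corrected, normalized to uninhibited probe labelling as 100% and excess cyclosulfate as 0%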
# T1 construct: purchased Genzyme
# [2] = molecular target: T2, human recombinant lysosomal α-glucosidase GAA (Myozyme) (Homo sapiens, UniProt P10253); test: fluorogenic substrate (4MU-α-D-glucopyranoside) assay on rhGAA; format: biochemical
# T2 construct: purchased Genzyme
# [3] = molecular target: T3, ER α-glucosidase GANAB (from Pompe disease Fibroblast lysates) (Homo sapiens, UniProt Q14697); test: fluorogenic substrate (4MU-α-D-glucopyranoside) assay on GANAB in Pompe fibroblast homogenates; format: biochemical;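 note: inhibitor preincubated 30 min at 37 °C with homogenate, then GANAB activity read after 2 h with 3.0 mM fluorogenic substrate in McIlvaine buffer containing 0.1% BSA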
# T3 construct: Cellular homogenates of Pompe fibroblasts (1 mg mL^−1) were used as protein source for GANAB; endogenous in cells; host or cells: Pompe disease fibroblasts (homogenate)
# T3 sequence (Q14697 29-944): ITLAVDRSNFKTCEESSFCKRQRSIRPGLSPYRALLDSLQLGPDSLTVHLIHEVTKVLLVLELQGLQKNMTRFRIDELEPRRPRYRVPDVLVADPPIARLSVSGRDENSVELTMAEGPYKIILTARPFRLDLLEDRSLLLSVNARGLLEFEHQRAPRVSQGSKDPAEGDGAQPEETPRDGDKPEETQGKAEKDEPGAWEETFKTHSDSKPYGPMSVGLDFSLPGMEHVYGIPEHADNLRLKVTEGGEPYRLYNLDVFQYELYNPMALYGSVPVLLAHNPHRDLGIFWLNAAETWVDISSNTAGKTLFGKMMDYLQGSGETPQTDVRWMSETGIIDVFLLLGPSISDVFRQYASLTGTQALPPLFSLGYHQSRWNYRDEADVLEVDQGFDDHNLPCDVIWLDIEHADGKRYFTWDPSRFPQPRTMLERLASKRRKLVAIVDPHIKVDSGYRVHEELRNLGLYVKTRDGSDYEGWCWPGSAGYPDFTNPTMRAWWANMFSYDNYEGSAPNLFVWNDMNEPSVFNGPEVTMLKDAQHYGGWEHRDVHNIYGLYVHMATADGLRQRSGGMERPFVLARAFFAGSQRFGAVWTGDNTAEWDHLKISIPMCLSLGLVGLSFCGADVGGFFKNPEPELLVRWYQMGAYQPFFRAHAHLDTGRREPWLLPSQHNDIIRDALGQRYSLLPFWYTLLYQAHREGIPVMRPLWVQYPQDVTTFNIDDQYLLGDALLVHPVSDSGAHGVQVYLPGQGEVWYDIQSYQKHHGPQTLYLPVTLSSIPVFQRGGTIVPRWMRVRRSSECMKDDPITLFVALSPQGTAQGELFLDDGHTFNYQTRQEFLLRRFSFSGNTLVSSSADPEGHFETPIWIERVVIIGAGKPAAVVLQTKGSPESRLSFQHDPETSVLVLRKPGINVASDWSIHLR
# T3 sequence (P14314 15-528 partner): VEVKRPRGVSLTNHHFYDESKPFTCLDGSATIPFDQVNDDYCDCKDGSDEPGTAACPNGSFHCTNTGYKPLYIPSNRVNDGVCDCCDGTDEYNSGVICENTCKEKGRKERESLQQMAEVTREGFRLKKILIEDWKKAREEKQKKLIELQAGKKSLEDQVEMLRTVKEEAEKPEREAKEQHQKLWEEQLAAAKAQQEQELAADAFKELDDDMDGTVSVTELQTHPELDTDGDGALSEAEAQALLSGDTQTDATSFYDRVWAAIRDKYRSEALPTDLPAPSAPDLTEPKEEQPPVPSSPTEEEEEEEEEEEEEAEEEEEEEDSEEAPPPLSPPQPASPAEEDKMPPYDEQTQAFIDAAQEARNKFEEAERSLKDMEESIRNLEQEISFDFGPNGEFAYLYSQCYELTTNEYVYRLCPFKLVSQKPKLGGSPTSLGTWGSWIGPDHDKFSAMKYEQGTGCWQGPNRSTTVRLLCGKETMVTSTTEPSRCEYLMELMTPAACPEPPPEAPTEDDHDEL
# [4] = tested on: glucosylceramide synthase (GCS) (RAW 264.7 cells); conditions: in situ; cited from earlier work
# [5] = tested on: GBA2 (GBA2-overexpressing HEK293T lysate); conditions: cited from earlier work
# [6] = tested on: rhGBA1 (Cerezyme); conditions: read-out: IC50 GBA1; cited from earlier work
# [7] = tested on: retaining β-glucosidases GBA1, GBA2 and GBA3; test: SDS-gel activity-based protein profiling (in-gel fluorescence labelling); format: biochemical; conditions: 500 nM probe, 30 min 37 °C
# Protocol: Lysates of HEK293T GBA2 overexpressing and HEK293T GBA3 overexpressing cells[24] were prepared in 150 mM McIlvain buffer (pH = 5.0), supplemented with 0.25 M sucrose, 0.2% sodium taurocholate (w/v) and 0.1% Triton X-100 (v/v). The lysates were homogenized using sonication, after which the total protein concentration was determined via Pierce BCA Protein assay (ThermoFisher) using BSA (ThermoFisher) for standards. Samples (Vf = 20 μL) of an 1 : 1 mixture of GBA2 : GBA3 lysates containing 40 μg protein were incubated for 30 min at 37 °C with 500 nM ABP. Protein content was denatured using Laemmli Buffer (4×) at 98 °C for 5 min. Reactions were resolved by 7.5% SDS-PAGE electrophoresis and wet slabs were scanned for fluorescence (Typhoon FLA 9500, GE Healthcare).
# [8] = molecular target: T4, recombinant human GBA1 (rhGBA1, Cerezyme) (Homo sapiens, UniProt P04062, R534H); test: competitive FluoPol-ABPP assay on rhGBA1 with TAMRA-ABP I; format: biochemical; conditions: library screen, 5 μM inhibitor, 5 nM ABP I
# T4 construct: purchased Genzyme
# T4 sequence (P04062 40-536 R534H): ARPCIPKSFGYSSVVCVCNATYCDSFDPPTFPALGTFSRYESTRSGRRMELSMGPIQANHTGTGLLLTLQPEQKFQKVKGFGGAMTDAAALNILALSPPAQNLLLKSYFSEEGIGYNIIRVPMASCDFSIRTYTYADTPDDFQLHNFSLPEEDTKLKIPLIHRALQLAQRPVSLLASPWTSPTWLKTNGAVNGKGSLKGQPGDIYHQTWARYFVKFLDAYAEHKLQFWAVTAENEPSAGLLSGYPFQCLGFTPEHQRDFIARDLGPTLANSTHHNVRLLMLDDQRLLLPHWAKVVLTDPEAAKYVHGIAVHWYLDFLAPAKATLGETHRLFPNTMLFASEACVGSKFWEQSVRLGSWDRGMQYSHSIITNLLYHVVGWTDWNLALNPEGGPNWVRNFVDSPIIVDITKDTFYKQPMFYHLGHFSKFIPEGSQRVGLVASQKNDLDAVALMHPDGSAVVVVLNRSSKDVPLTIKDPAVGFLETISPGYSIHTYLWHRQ
# [9] = Table S2, 4-MU alpha glucoside substrate, read-out: IC50 on rhGAA
# [10] = 4MU-α-glucoside substrate, pH 7.0, mean ± SD, 3 technical replicates, read-out: IC50 GANAB
# [11] = Table S2, 4-MU alpha glucoside substrate, read-out: IC50 on GANAB
SMILES,GAA FP% (residual FP-signal) [1],"IC50 [2, 9]","IC50 [3, 11]",other results
OC[C@@H]1[C@@H](O)[C@H](O)[C@@H](O)CN1CCCCCOCc1cc2ccccc2c2ccccc12 [Compound 15],25%,110 nM,2000 nM,"IC50 [3, 10]: 1960 ± 40 nM; IC50 [4]: > 20000 nM; IC50 [5]: 100 nM; IC50 [6]: 10000 nM"
COC(=O)c1cc(C(=O)NCCCCc2cn(C[C@@H]3[C@@H](O)[C@H](O)[C@@H](O)[C@@H]4O[C@H]34)nn2)ccc1-c1c2ccc(=[N+](C)C)cc-2oc2cc(N(C)C)ccc12 [ABP I],–,–,–,β-glucosidase labelling selectivity of the probe [7]: modifies exclusively GBA1
O[C@@H]1[C@@H](O)[C@@H](CCCCCCOCC23CC4CC(CC(C4)C2)C3)NC[C@H]1O [Compound 7],–,–,–,inhibition at 5 µM [8]: > 90%
OC[C@H]1N[C@H](CCCCCCOCC23CC4CC(CC(C4)C2)C3)[C@H](O)[C@@H](O)[C@@H]1O [Compound 8],29%,2460 nM,–,inhibition at 5 µM [8]: > 90%
OC[C@@H]1[C@@H](O)[C@H](O)[C@@H](O)CN1CCCCCOCc1ccc(-c2ccc3c(c2)OCCCO3)cc1 [#ID 304],0.6%,37 nM,1200 nM,–
OC[C@@H]1[C@@H](O)[C@H](O)[C@@H](O)CN1CCCCCOCc1ccc(-c2ccccc2)cc1 [Compound 6],–,1200 nM,8300 nM,"GAA FP% (residual FP-signal) ([1]; listed as 62): 3.8%; IC50 ([2]; 4MU-α-glucoside substrate, pH 4.0, mean ± SD, 3 technical replicates, read-out: IC50 GAA): 1180 ± 310 nM; IC50 [3, 10]: 8290 ± 170 nM"
OC[C@@H]1[C@@H](O)[C@H](O)[C@@H](O)CN1CCCCCOCc1ccc(-c2ccccc2)c(C(F)(F)F)c1 [#ID 120],2.4%,16 nM,720 nM,–
OC[C@@H]1[C@@H](O)[C@H](O)[C@@H](O)CN1CCCCCOCc1ccc(-c2ccc(Br)cc2)cc1 [#ID 348],3.1%,23 nM,610 nM,–
OC[C@H]1N[C@H](CCCCCOCC23CC4CC(CC(C4)C2)C3)[C@H](O)[C@@H](O)[C@@H]1O [Compound 14],34%,4000 nM,–,"IC50 [3, 10]: > 100000 nM; IC50 [4]: 50000 nM; IC50 [5]: 300 nM; IC50 [6]: 70 nM"
OC[C@@H]1[C@@H](O)[C@H](O)[C@@H](O)CN1CCCCCOCc1ccc(-c2ccccc2)cn1 [#ID 336],0.4%,37 nM,310 nM,–
OC[C@@H]1[C@@H](O)[C@H](O)[C@@H](O)CN1CCCCCOCc1cccc(-c2ccccc2)c1 [#ID 341],1.8%,54 nM,520 nM,–
CCCCCOCCCCCN1C[C@H](O)[C@@H](O)[C@H](O)[C@H]1CO [#ID 20],–,–,–,"GAA FP% (residual FP-signal) ([1]; listed as 20): 17%; IC50 ([2]; Table S2, 4-MU alpha glucoside substrate, listed as 20, read-out: IC50 on rhGAA): 330 nM; IC50 ([3]; Table S2, 4-MU alpha glucoside substrate, listed as 20, read-out: IC50 on GANAB): 19000 nM"
OC[C@@H]1[C@@H](O)[C@H](O)[C@@H](O)CN1CCCCCOCc1ccc(-c2cc(C(F)(F)F)cc(C(F)(F)F)c2)cc1 [#ID 308],1.5%,2400 nM,14000 nM,–
